What was measured:
[1] = tested on: SHR/L-NAME model of hypertension; test: Cardiac hypertrophy and fibrosis in L-NAME-treated SHRs; format: in vivo, rat
Procedure: 12-14 week old male SHRs were randomized to receive vehicle, L-NAME (50 mg/L) or L-NAME and 4μ8c (2.5 mg/kg/day i.p.) for 18 days. (A) Cardiac hypertrophy measured using heart weight to body ratio. (B) Quantification of Picro-Sirius Red-stained area in heart tissue. (C) Picro-Sirius Red staining of transverse heart sections. Bar: 4×, 500 μm; 20×, 200 μm. Data is presented as mean±SEM. *, p<0.05 vs. NT. #, p<0.05 vs L-NAME.
12-14 week old male SHRs were used to determine the effect of pharmacological IRE1α inhibition on L-NAME-induced vascular stiffening. They were maintained on a 12-hour light-dark cycle with rat chow and water ad libitium. Animals were implanted with radio-telemetry devices (Data Science International, St. Paul, Minn., USA) one week before the start of the study. Animals were randomized into one of three groups (n=6 per group): 1) No treatment, 2) L-NAME (50 mg/L in drinking water, Sigma-Aldrich), or 3) L-NAME+4μ8c (2.5 mg/kg/day i.p., Millipore). 4μ8c was administered in a vehicle of 10% DMSO, 10% Tween-80 and 80% normal saline. Animals in Group 2 received daily injections of the vehicle. All animals were fed a normal chow diet. […]
Tissues were fixed in 4% paraformaldehyde and subsequently embedded in paraffin. […] Collagen area density was calculated by dividing the PSR-stained area by the total area of the vessel.

spliced XBP1, GRP78, PDI = test: Aortic collagen chaperone and ER stress marker expression (qRT-PCR, Western blot) in L-NAME-treated SHRs; format: in vivo, rat
Procedure: 12-14 week old male SHRs were randomized to receive vehicle, L-NAME (50 mg/L) or L-NAME and 4μ8c (2.5 mg/kg/day i.p.) for 18 days. Total RNA was extracted from flash frozen aortic tissues. (A) qRT-PCR was used to assess relative mRNA expression of spliced XBP1 and GRP78. 18S was used as a housekeeping gene. (B) Protein levels of PDI and GRP78 were assessed by western blotting and normalized to β-actin. Data is presented as mean±SEM. *, p<0.05 vs. NT. #, p<0.05 vs L-NAME.
12-14 week old male SHRs were used to determine the effect of pharmacological IRE1α inhibition on L-NAME-induced vascular stiffening. They were maintained on a 12-hour light-dark cycle with rat chow and water ad libitium. Animals were implanted with radio-telemetry devices (Data Science International, St. Paul, Minn., USA) one week before the start of the study. Animals were randomized into one of three groups (n=6 per group): 1) No treatment, 2) L-NAME (50 mg/L in drinking water, Sigma-Aldrich), or 3) L-NAME+4μ8c (2.5 mg/kg/day i.p., Millipore). 4μ8c was administered in a vehicle of 10% DMSO, 10% Tween-80 and 80% normal saline. Animals in Group 2 received daily injections of the vehicle. All animals were fed a normal chow diet. At 18 days, animals were sacrificed, organs were harvested and the aorta was collected for mechanical and structural analysis. All animal work was performed according to the guidelines approved by the McMaster University Animal Research Ethics Board.
Total RNA was extracted from cultured cells and rat tissues using the TRIzol reagent (ThermoFisher) according to manufacturer's instructions. RNA concentration and purity were measured using a Nanodrop ND-1000 spectrophotometer (NanoDrop Technologies, Inc.). […]
For qRT-PCR, cDNA was amplified using the Fast SYBR Green Master Mix (ThermoFisher) and analyzed with 7500 Software. […]
Cells were lysed in 1× Laemmli buffer and protein content was quantified using the BioRad DC Protein Assay (BioRad, Mississauga, Canada). […]

In the case of `Cc1cc(=O)oc2c(C=O)c(O)ccc12` [4μ8c, 7-Hydroxy-4-methyl-2-oxo-2H-chromene-8-carbaldehyde], the “fibrosis in the left and right ventricles by PSR staining” value ([1]; 4μ8c-treated animals vs L-NAME group, FIGS. 7B and 7C) is reported as “significantly reduced”, the “cardiac hypertrophy (heart weight to body weight ratio)” value ([1]; L-NAME+4μ8c group, 18 days, FIG. 7A) is reported as 4.293±0.438 mg HW/g BW and the “GRP78 protein in the aorta” value (spliced XBP1, GRP78, PDI; L-NAME+4μ8c group compared to the other two groups, Western blot) is reported as “significantly decreased”. For the same molecule, the “PDI protein expression in the aorta” value (spliced XBP1, GRP78, PDI; L-NAME+4μ8c group vs L-NAME group, Western blot) was “significantly decreased” and the “Spliced XBP1 and GRP78 mRNA expression in the aorta” value (spliced XBP1, GRP78, PDI; L-NAME+4μ8c group vs L-NAME group, qRT-PCR, FIG. 6A) was “reduced”.

Source: patent US20190038597A1, “PREVENTION OF VASCULAR AND CARDIAC FIBROSIS VIA IRE1ALPHA INHIBITION” (McMaster University, priority 2017, published 2019)
